Measurements taken from patent US20240050428A1 (Cullgen (Shanghai), Inc., priority 2020, published 2024).
pIC50: −log10 of the molar value. Where two headings read alike, the source gives them in different places.

How the values were obtained:
MOLM-13 cells = experiment: Cell viability assay (CellTiter-Glo) in MOLM-13 cells, alone or with gilteritinib; type: cell-based; conditions: Homo sapiens, MOLM-13 cells, three days, CellTiter-Glo
MV4;11 cells = experiment: Cell viability assay (CellTiter-Glo) in MV4;11 cells, alone or with gilteritinib; type: cell-based; conditions: Homo sapiens, MV4;11 cells, three days, CellTiter-Glo, read-out: MV4
[1] = MOLM-13, 72 h, compound alone (without gilteritinib), read-out: MOLM-13 IC50
[2] = MOLM-13, 72 h, with gilteritinib 20 nM, read-out: MOLM-13 IC50 gilteritinib
[3] = MV4-11, 72 h, compound alone (without gilteritinib), 11 IC50
[4] = MV4-11, 72 h, with gilteritinib 10 nM, 11 IC50 gilteritinib
[5] = 72 h, compound alone (without gilteritinib), read-out: MOLM-13 IC50
[6] = 72 h, with gilteritinib 20 nM, read-out: MOLM-13 IC50 gilteritinib
[7] = 72 h, compound alone (without gilteritinib), 11 IC50
[8] = 72 h, with gilteritinib 10 nM, 11 IC50 gilteritinib

SMILES: CN1CCN(c2ccc(-c3cn([C@H]4C[C@H](CNc5ccc6c(c5)C(=O)N(C5CCC(=O)NC5=O)C6=O)C4)nc3C3CC3)nc2)CC1 (stereo partly drawn) [GS-298, 5-(((trans-3-(3-Cyclopropyl-4-(5-(4-methylpiperazin-1-yl)pyridin-2-yl)-1H-pyrazol-1-yl)cyclobutyl)methyl)amino)-2-(2,6-dioxopiperidin-3-yl)isoindoline-1,3-dione]
- pIC50 (MOLM-13 cells; [1]): < 6.00
- pIC50 (MOLM-13 cells; [2]): < 6.00
- pIC50 (MV4;11 cells; [3]): < 6.00
- pIC50 (MV4;11 cells; [4]): < 6.00

SMILES: O=C1CCC(N2C(=O)c3ccc(NC[C@H]4C[C@H](n5cc(-c6nccc7[nH]ncc67)c(C6CC6)n5)C4)cc3C2=O)C(=O)N1 (stereo partly drawn) [GS-299, 5-(((trans-3-(3-Cyclopropyl-4-(1H-pyrazolo[4,3-c]pyridin-4-yl)-1H-pyrazol-1-yl)cyclobutyl)methyl)amino)-2-(2,6-dioxopiperidin-3-yl)isoindoline-1,3-dione]
- pIC50 (MOLM-13 cells; [1]): 7.00 to 8.00
- pIC50 (MOLM-13 cells; [2]): > 8.00
- pIC50 (MV4;11 cells; [3]): > 8.00
- pIC50 (MV4;11 cells; [4]): > 8.00

SMILES: CNc1ccc(-c2cn([C@H]3C[C@H](CNc4ccc5c(c4)C(=O)N(C4CCC(=O)NC4=O)C5=O)C3)nc2C2CC2)nc1 (stereo partly drawn) [GS-301, 5-(((trans-3-(3-Cyclopropyl-4-(5-(methylamino)pyridin-2-yl)-1H-pyrazol-1-yl)cyclobutyl)methyl)amino)-2-(2,6-dioxopiperidin-3-yl)isoindoline-1,3-dione]
- pIC50 (MOLM-13 cells; [1]): < 6.00
- pIC50 (MOLM-13 cells; [2]): 6.00 to 7.00
- pIC50 (MV4;11 cells; [3]): < 6.00
- pIC50 (MV4;11 cells; [4]): 6.00 to 7.00

SMILES: O=C1CCC(N2C(=O)c3ccc(NC[C@H]4C[C@H](n5cc(-c6ccc(NC7CCNCC7)cn6)c(C6CC6)n5)C4)cc3C2=O)C(=O)N1 (stereo partly drawn) [GS-302, 5-(((trans-3-(3-Cyclopropyl-4-(5-(piperidin-4-ylamino)pyridin-2-yl)-1H-pyrazol-1-yl)cyclobutyl)methyl)amino)-2-(2,6-dioxopiperidin-3-yl)isoindoline-1,3-dione]
- pIC50 (MOLM-13 cells; [1]): < 6.00
- pIC50 (MOLM-13 cells; [2]): < 6.00
- pIC50 (MV4;11 cells; [3]): < 6.00
- pIC50 (MV4;11 cells; [4]): < 6.00

SMILES: CN1CCC(Nc2ccc(-c3cn([C@H]4C[C@H](CNc5ccc6c(c5)C(=O)N(C5CCC(=O)NC5=O)C6=O)C4)nc3C3CC3)nc2)CC1 (stereo partly drawn) [GS-303, 5-(((trans-3-(3-Cyclopropyl-4-(5-((1-methylpiperidin-4-yl)amino)pyridin-2-yl)-1H-pyrazol-1-yl)cyclobutyl)methyl)amino)-2-(2,6-dioxopiperidin-3-yl)isoindoline-1,3-dione]
- pIC50 (MOLM-13 cells; [1]): < 6.00
- pIC50 (MOLM-13 cells; [2]): < 6.00
- pIC50 (MV4;11 cells; [3]): < 6.00
- pIC50 (MV4;11 cells; [4]): < 6.00

SMILES: O=C1CCC(N2C(=O)c3ccc(NC[C@H]4C[C@H](n5cc(-c6ncccc6NC6CCNCC6)c(C6CC6)n5)C4)cc3C2=O)C(=O)N1 (stereo partly drawn) [GS-304, 5-(((trans-3-(3-Cyclopropyl-4-(3-(piperidin-4-ylamino)pyridin-2-yl)-1H-pyrazol-1-yl)cyclobutyl)methyl)amino)-2-(2,6-dioxopiperidin-3-yl)isoindoline-1,3-dione]
- pIC50 (MOLM-13 cells; [1]): < 6.00
- pIC50 (MOLM-13 cells; [2]): < 6.00
- pIC50 (MV4;11 cells; [3]): < 6.00
- pIC50 (MV4;11 cells; [4]): < 6.00

SMILES: Cc1nc(-c2cn([C@H]3C[C@H](CNc4ccc5c(c4)C(=O)N(C4CCC(=O)NC4=O)C5=O)C3)nc2C2CC2)ccc1F (stereo partly drawn) [GS-305, 5-(((trans-3-(3-Cyclopropyl-4-(5-fluoro-6-methylpyridin-2-yl)-1H-pyrazol-1-yl)cyclobutyl)methyl)amino)-2-(2,6-dioxopiperidin-3-yl)isoindoline-1,3-dione]
- pIC50 (MOLM-13 cells; [1]): 7.00 to 8.00
- pIC50 (MOLM-13 cells; [2]): > 8.00
- pIC50 (MV4;11 cells; [3]): 7.00 to 8.00
- pIC50 (MV4;11 cells; [4]): > 8.00

SMILES: CNc1ccnc(-c2cn([C@H]3C[C@H](CNc4ccc5c(c4)C(=O)N(C4CCC(=O)NC4=O)C5=O)C3)nc2C2CC2)c1 (stereo partly drawn) [GS-306, 5-(((trans-3-(3-Cyclopropyl-4-(4-(methylamino)pyridin-2-yl)-1H-pyrazol-1-yl)cyclobutyl)methyl)amino)-2-(2,6-dioxopiperidin-3-yl)isoindoline-1,3-dione]
- pIC50 (MOLM-13 cells; [1]): < 6.00
- pIC50 (MOLM-13 cells; [2]): < 6.00
- pIC50 (MV4;11 cells; [3]): < 6.00
- pIC50 (MV4;11 cells; [4]): < 6.00

SMILES: O=C1CCC(N2C(=O)c3ccc(NC[C@H]4C[C@H](n5cc(-c6cc7[nH]cnc7cn6)c(C6CC6)n5)C4)cc3C2=O)C(=O)N1 (stereo partly drawn) [GS-307, 5-(((trans-3-(3-Cyclopropyl-4-(1H-imidazo[4,5-c]pyridin-6-yl)-1H-pyrazol-1-yl)cyclobutyl)methyl)amino)-2-(2,6-dioxopiperidin-3-yl)isoindoline-1,3-dione]
- pIC50 (MOLM-13 cells; [1]): 6.00 to 7.00
- pIC50 (MOLM-13 cells; [2]): 7.00 to 8.00
- pIC50 (MV4;11 cells; [3]): 6.00 to 7.00
- pIC50 (MV4;11 cells; [4]): 7.00 to 8.00

SMILES: O=C1CCC(N2C(=O)c3ccc(NC[C@H]4C[C@H](n5cc(-c6ccc7c(n6)CCCC7)c(C6CC6)n5)C4)cc3C2=O)C(=O)N1 (stereo partly drawn) [GS-308, 5-(((trans-3-(3-Cyclopropyl-4-(5,6,7,8-tetrahydroquinolin-2-yl)-1H-pyrazol-1-yl)cyclobutyl)methyl)amino)-2-(2,6-dioxopiperidin-3-yl)isoindoline-1,3-dione]
- pIC50 (MOLM-13 cells; [1]): 7.00 to 8.00
- pIC50 (MOLM-13 cells; [2]): > 8.00
- pIC50 (MV4;11 cells; [3]): 7.00 to 8.00
- pIC50 (MV4;11 cells; [4]): > 8.00

SMILES: O=C1CCC(N2C(=O)c3ccc(NC[C@H]4C[C@H](n5cc(-c6nccc7nccnc67)c(C6CC6)n5)C4)cc3C2=O)C(=O)N1 (stereo partly drawn) [GS-309, 5-(((trans-3-(3-Cyclopropyl-4-(pyrido[3,4-b]pyrazin-5-yl)-1H-pyrazol-1-yl)cyclobutyl)methyl)amino)-2-(2,6-dioxopiperidin-3-yl)isoindoline-1,3-dione]
- pIC50 (MOLM-13 cells; [1]): > 8.00
- pIC50 (MOLM-13 cells; [2]): > 8.00
- pIC50 (MV4;11 cells; [3]): > 8.00
- pIC50 (MV4;11 cells; [4]): > 8.00

SMILES: O=C1CCC(N2C(=O)c3ccc(NC[C@H]4C[C@H](n5cc(-c6nccc7cn[nH]c67)c(C6CC6)n5)C4)cc3C2=O)C(=O)N1 (stereo partly drawn) [GS-310, 5-(((trans-3-(3-Cyclopropyl-4-(1H-pyrazolo[3,4-c]pyridin-7-yl)-1H-pyrazol-1-yl)cyclobutyl)methyl)amino)-2-(2,6-dioxopiperidin-3-yl)isoindoline-1,3-dione]
- pIC50 (MOLM-13 cells; [1]): 6.00 to 7.00
- pIC50 (MOLM-13 cells; [2]): 7.00 to 8.00
- pIC50 (MV4;11 cells; [3]): 7.00 to 8.00
- pIC50 (MV4;11 cells; [4]): 7.00 to 8.00

SMILES: O=C1CCC(N2C(=O)c3ccc(NCCC[C@H]4C[C@H](n5cc(-c6ncccc6Cl)cn5)C4)cc3C2=O)C(=O)N1 (stereo partly drawn) [GS-311, 5-((3-(trans-3-(4-(3-Chloropyridin-2-yl)-1H-pyrazol-1-yl)cyclobutyl)propyl)amino)-2-(2,6-dioxopiperidin-3-yl)isoindoline-1,3-dione]
- pIC50 (MOLM-13 cells; [1]): < 6.00
- pIC50 (MOLM-13 cells; [2]): 7.00 to 8.00
- pIC50 (MV4;11 cells; [3]): 7.00 to 8.00
- pIC50 (MV4;11 cells; [4]): > 8.00

SMILES: O=C(CCn1cc(-c2cnc3ccccc3n2)c(C2CC2)n1)NCc1ccc2c(c1)C(=O)N(C1CCC(=O)NC1=O)C2=O (centres unmarked) [GS-312, 3-(3-Cyclopropyl-4-(quinoxalin-2-yl)-1H-pyrazol-1-yl)-N-((2-(2,6-dioxopiperidin-3-yl)-1,3-dioxoisoindolin-5-yl)methyl)propanamide]
- pIC50 (MOLM-13 cells; [5]): < 6.00
- pIC50 (MOLM-13 cells; [6]): < 6.00
- pIC50 (MV4;11 cells; [7]): < 6.00
- pIC50 (MV4;11 cells; [8]): < 6.00

SMILES: O=C1CCC(N2C(=O)c3ccc(CNCCCn4cc(-c5cnc6ccccc6n5)c(C5CC5)n4)cc3C2=O)C(=O)N1 (centres unmarked) [GS-313, 5-(((3-(3-Cyclopropyl-4-(quinoxalin-2-yl)-1H-pyrazol-1-yl)propyl)amino)methyl)-2-(2,6-dioxopiperidin-3-yl)isoindoline-1,3-dione]
- pIC50 (MOLM-13 cells; [1]): < 6.00
- pIC50 (MOLM-13 cells; [2]): < 6.00
- pIC50 (MV4;11 cells; [3]): < 6.00
- pIC50 (MV4;11 cells; [4]): < 6.00

SMILES: CN1CCN(c2ccc3nc(-c4cn([C@H]5C[C@H](CNc6ccc7c(c6)C(=O)N(C6CCC(=O)NC6=O)C7=O)C5)nc4C4CC4)cnc3c2)CC1 (stereo partly drawn) [GS-314, 5-(((trans-3-(3-Cyclopropyl-4-(6-(4-methylpiperazin-1-yl)quinoxalin-2-yl)-1H-pyrazol-1-yl)cyclobutyl)methyl)amino)-2-(2,6-dioxopiperidin-3-yl)isoindoline-1,3-dione]
- pIC50 (MOLM-13 cells; [1]): 7.00 to 8.00
- pIC50 (MOLM-13 cells; [2]): > 8.00
- pIC50 (MV4;11 cells; [3]): 7.00 to 8.00
- pIC50 (MV4;11 cells; [4]): > 8.00

SMILES: O=C1CCC(N2C(=O)c3ccc(NCCCCCCn4cc(-c5cnc6cccc(Br)c6n5)cn4)cc3C2=O)C(=O)N1 (centres unmarked) [GS-315, 5-((6-(4-(8-Bromoquinoxalin-2-yl)-1H-pyrazol-1-yl)hexyl)amino)-2-(2,6-dioxopiperidin-3-yl)isoindoline-1,3-dione]
- pIC50 (MOLM-13 cells; [1]): 6.00 to 7.00
- pIC50 (MOLM-13 cells; [2]): 7.00 to 8.00
- pIC50 (MV4;11 cells; [3]): 7.00 to 8.00
- pIC50 (MV4;11 cells; [4]): > 8.00

SMILES: O=C(CN1CCC(n2cc(-c3cnc4ccccc4n3)cn2)CC1)NCCCNc1ccc2c(c1)C(=O)N(C1CCC(=O)NC1=O)C2=O (centres unmarked) [GS-316, N-(3-((2-(2,6-Dioxopiperidin-3-yl)-1,3-dioxoisoindolin-5-yl)amino)propyl)-2-(4-(4-(quinoxalin-2-yl)-1H-pyrazol-1-yl)piperidin-1-yl)acetamide]
- pIC50 (MOLM-13 cells; [1]): < 6.00
- pIC50 (MOLM-13 cells; [2]): 6.00 to 7.00
- pIC50 (MV4;11 cells; [3]): < 6.00
- pIC50 (MV4;11 cells; [4]): < 6.00

SMILES: O=C(CN1CCC(n2cc(-c3ccc4ccccc4n3)cn2)CC1)NCCCNc1ccc2c(c1)C(=O)N(C1CCC(=O)NC1=O)C2=O (centres unmarked) [GS-317, N-(3-((2-(2,6-Dioxopiperidin-3-yl)-1,3-dioxoisoindolin-5-yl)amino)propyl)-2-(4-(4-(quinolin-2-yl)-1H-pyrazol-1-yl)piperidin-1-yl)acetamide]
- pIC50 (MOLM-13 cells; [1]): < 6.00
- pIC50 (MOLM-13 cells; [2]): 6.00 to 7.00
- pIC50 (MV4;11 cells; [3]): < 6.00
- pIC50 (MV4;11 cells; [4]): < 6.00

SMILES: O=C1CCC(N2C(=O)c3ccc(NCCCC(=O)N4CCN(c5ccccn5)CC4)cc3C2=O)C(=O)N1 (centres unmarked) [GS-318, 2-(2,6-Dioxopiperidin-3-yl)-5-((4-oxo-4-(4-(pyridin-2-yl)piperazin-1-yl)butyl)amino)isoindoline-1,3-dione]
- pIC50 (MOLM-13 cells; [5]): < 6.00
- pIC50 (MOLM-13 cells; [6]): 7.00 to 8.00
- pIC50 (MV4;11 cells; [7]): 6.00 to 7.00
- pIC50 (MV4;11 cells; [8]): 7.00 to 8.00
